According to ChEMBL document CHEMBL6121063, “Identification of a Potent and Selective CDK9 Degrader as a Targeted Therapeutic Option for the Treatment of Small-Cell Lung Cancer” (J Med Chem, 2025):
Calls of active or inactive are those of the source. The rule behind the calls is not given here.

Tests used:
[1] = test system: NCI-H446; assay: Induction of apoptosis in human NCI-H446 cells incubated for 36 hrs by Annexin V-FITC/PI staining based flow cytometric analysis; type: functional, cell-based; details: dose 1-8 nM
[2] = test system: DMS-53; assay: Inhibition of cell invasion in human DMS-53 cells assessed as decrease in number of cells passing through upper chamber at 2to 4 nM incubated for 48 hrs by crystal violet staining based microscopic analysis; type: functional
[3] = target: T1, Protein cereblon/Cyclin-dependent kinase 9 (Homo sapiens, UniProt P50750+Q96SW2); assay: In vivo PROTAC activity at CRBN/CDK9 in female BALB/c nude mouse xenografted with human NCI-H446 cells assessed as induction of CDK9 degradation in tumor at 25 mg/kg, po measured after 24 hrs by Western blot analysis; type: functional, organism-based
[4] = test system: NCI-H446; assay: Downregulation of CDK9 protein level in human NCI-H446 cells at 10 nM incubated for 3 hrs by quantitative proteomic analysis; type: functional, cell-based
[5] = test system: NCI-H446; assay: Cell cycle arrest in human NCI-H446 cells assessed as increase in G1 phase population incubated for 36 hrs by PI staining based flow cytometric analysis; type: functional; details: dose 0.5-2 nM
[6] = target: Cyclin-dependent kinase 1/cyclin B1 (Homo sapiens) (UniProt P06493+P14635); assay: Inhibition of CDK1/cyclin B1 (unknown origin) at 10 nM relative to control; type: protein-complex assay
[7] = target: CDK12/Cyclin K (Homo sapiens) (UniProt O75909+Q9NYV4); assay: Inhibition of CDK12/Cyclin K (unknown origin) at 10 nM relative to control; type: protein-complex assay
[8] = test system: NCI-H446; assay: Antitumor activity against human NCI-H446 cells xenografted in female NU-NU mouse model assessed as decrease in Ki67 level in tumor at 12.5 to 25 mg/kg, po administered once daily for 15 days by immunohistochemical staining based analysis; type: functional, organism-based; details: dose 12.5-25 mg/kg, time 15.0 day
[9] = target: T1, Protein cereblon/Cyclin-dependent kinase 9; assay: PROTAC activity at CRBN/CDK9 in human NCI-H446 cells assessed as induction of CDK9 degradation by measuring reduction in half-life incubated upto 24 hrs in presence of cycloheximide by Western blot analysis; type: cell-based
[10] = test system: NCI-H69; assay: Antiproliferative activity against human NCI-H69 cells assessed as reduction in cell viability incubated for 72 hrs in presence of thalidomide by celltiter-Glo assay; type: functional, cell-based
[11] = target: CDK1/Cyclin E (Homo sapiens) (UniProt P06493+P24864); assay: Inhibition of CDK1/cyclin E1 (unknown origin) at 10 nM relative to control; type: protein-complex assay
[12] = target: T1, Protein cereblon/Cyclin-dependent kinase 9; assay: PROTAC activity at CRBN/CDK9 in human NCI-H69 cells assessed as induction of CDK9 degradation preincubated with thalidomide for 2 hrs followed by compound addition and measured after 3 hrs by Western blot analysis; type: cell-based
[13] = test system: DMS-114; assay: Inhibition of colony formation in human DMS-114 cells at 2 to 4 nM incubated for 8 days by crystal violet staining based analysis; type: functional, cell-based; details: dose 2-4 nM, time 8.0 day
[14] = test system: NCI-H69; assay: Induction of apoptosis in human NCI-H69 cells incubated for 36 hrs by Annexin V-FITC/PI staining based flow cytometric analysis; type: functional, cell-based; details: dose 1-8 nM
[15] = test system: NCI-H69; assay: Inhibition of colony formation in human NCI-H69 cells at 2 to 4 nM incubated for 8 days by crystal violet staining based analysis; type: functional, cell-based; details: dose 2-4 nM, time 8.0 day
[16] = target: T1, Protein cereblon/Cyclin-dependent kinase 9; assay: PROTAC activity at CRBN/CDK9 in human NCI-H69 cells assessed as increase in CDK9 ubiquitination preincubated with MG132 for 2 hrs followed by compound addition and measured after 3 hrs by co-immunoprecipitation analysis; type: cell-based
[17] = test system: NCI-H69; assay: Induction of apoptosis in human NCI-H69 cells assessed as increase in p53 level incubated for 36 hrs by Western blot analysis; type: functional, cell-based
[18] = test system: NCI-H69; assay: Induction of apoptosis in human NCI-H69 cells assessed as decrease in BCL-2 expression incubated for 36 hrs by Western blot analysis; type: functional, cell-based
[19] = test system: NCI-H69; assay: Induction of apoptosis in human NCI-H69 cells assessed as increase in cleaved caspase-3 level incubated for 36 hrs by Western blot analysis; type: functional, cell-based
[20] = test system: DMS-114; assay: Inhibition of cell invasion in human DMS-114 cells assessed as decrease in number of cells passing through upper chamber at 2to 4 nM incubated for 48 hrs by crystal violet staining based microscopic analysis; type: functional
[21] = target: T1, Protein cereblon/Cyclin-dependent kinase 9; assay: PROTAC activity at CRBN/CDK9 in human NCI-H69 cells assessed as induction of CDK9 degradation at 10 nM measured within 3 hrs by Western blot analysis; type: cell-based
[22] = target: CDK6/cyclin D1 (Homo sapiens) (UniProt P24385+Q00534); assay: Inhibition of CDK6/cyclin D1 (unknown origin) at 10 nM relative to control; type: protein-complex assay
[23] = test system: NCI-H446; assay: Antitumor activity against human NCI-H446 cells expressing luciferase-GFP xenografted in female NU-NU mouse model assessed as decrease in tumor burden at 12.5 to 25 mg/kg, po administered for 19 days; type: functional, organism-based; details: dose 12.5-25 mg/kg, time 19.0 day
[24] = target: Cyclin-dependent kinase 13/Cyclin-K (Homo sapiens) (UniProt Q14004+O75909); assay: Inhibition of CDK13/Cyclin K (unknown origin) at 10 nM relative to control; type: protein-complex assay
[25] = target: T1, Protein cereblon/Cyclin-dependent kinase 9; assay: PROTAC activity at CRBN/CDK9 in human NCI-H69 cells assessed as induction of CDK9 degradation by measuring reduction in half-life incubated upto 24 hrs in presence of cycloheximide by Western blot analysis; type: cell-based
[26] = target: Cyclin-dependent kinase 2/cyclin E1 (Homo sapiens) (UniProt P24864+P24941); details: dose 10.0 nM

T1 sequence (P50750 whole entry, looked up): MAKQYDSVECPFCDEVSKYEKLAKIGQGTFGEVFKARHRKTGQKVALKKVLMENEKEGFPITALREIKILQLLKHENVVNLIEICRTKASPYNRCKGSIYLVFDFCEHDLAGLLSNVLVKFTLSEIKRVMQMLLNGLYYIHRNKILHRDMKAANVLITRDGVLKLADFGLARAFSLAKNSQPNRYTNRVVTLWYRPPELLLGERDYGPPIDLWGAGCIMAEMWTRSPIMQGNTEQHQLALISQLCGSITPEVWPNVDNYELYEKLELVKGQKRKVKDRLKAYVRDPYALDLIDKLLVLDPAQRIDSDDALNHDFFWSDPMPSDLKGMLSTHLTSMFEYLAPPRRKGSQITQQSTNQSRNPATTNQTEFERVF
T1 sequence (Q96SW2 whole entry, looked up): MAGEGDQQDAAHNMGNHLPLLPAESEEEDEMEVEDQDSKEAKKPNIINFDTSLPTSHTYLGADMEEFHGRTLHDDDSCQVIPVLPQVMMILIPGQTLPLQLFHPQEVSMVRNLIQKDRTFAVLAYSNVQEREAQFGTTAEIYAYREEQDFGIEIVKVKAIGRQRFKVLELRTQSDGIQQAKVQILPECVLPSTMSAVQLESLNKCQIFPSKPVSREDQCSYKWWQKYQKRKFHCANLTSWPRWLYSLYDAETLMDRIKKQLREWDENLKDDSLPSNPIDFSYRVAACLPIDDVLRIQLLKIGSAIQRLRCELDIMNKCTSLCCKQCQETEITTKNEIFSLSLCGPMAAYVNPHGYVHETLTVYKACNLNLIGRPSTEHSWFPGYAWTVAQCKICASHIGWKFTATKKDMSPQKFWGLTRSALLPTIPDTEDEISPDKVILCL
CDK12/Cyclin K (Homo sapiens), sequence (O75909 whole entry, looked up): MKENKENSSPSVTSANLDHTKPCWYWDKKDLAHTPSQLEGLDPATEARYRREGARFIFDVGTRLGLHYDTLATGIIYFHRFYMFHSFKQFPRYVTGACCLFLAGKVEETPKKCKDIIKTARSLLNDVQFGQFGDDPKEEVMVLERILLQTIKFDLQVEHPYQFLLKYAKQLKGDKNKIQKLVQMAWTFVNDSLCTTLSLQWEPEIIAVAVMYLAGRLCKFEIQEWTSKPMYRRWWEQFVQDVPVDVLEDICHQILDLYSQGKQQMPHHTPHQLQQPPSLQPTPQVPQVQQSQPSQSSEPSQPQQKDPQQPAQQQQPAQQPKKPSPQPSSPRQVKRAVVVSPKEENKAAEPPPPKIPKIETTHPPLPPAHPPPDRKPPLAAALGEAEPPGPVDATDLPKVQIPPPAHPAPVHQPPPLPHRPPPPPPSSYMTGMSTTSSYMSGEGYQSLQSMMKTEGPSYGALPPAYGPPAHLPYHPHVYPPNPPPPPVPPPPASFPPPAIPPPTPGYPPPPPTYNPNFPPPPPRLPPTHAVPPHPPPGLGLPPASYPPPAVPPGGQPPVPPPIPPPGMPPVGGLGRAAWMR
CDK12/Cyclin K (Homo sapiens), sequence (Q9NYV4 whole entry, looked up): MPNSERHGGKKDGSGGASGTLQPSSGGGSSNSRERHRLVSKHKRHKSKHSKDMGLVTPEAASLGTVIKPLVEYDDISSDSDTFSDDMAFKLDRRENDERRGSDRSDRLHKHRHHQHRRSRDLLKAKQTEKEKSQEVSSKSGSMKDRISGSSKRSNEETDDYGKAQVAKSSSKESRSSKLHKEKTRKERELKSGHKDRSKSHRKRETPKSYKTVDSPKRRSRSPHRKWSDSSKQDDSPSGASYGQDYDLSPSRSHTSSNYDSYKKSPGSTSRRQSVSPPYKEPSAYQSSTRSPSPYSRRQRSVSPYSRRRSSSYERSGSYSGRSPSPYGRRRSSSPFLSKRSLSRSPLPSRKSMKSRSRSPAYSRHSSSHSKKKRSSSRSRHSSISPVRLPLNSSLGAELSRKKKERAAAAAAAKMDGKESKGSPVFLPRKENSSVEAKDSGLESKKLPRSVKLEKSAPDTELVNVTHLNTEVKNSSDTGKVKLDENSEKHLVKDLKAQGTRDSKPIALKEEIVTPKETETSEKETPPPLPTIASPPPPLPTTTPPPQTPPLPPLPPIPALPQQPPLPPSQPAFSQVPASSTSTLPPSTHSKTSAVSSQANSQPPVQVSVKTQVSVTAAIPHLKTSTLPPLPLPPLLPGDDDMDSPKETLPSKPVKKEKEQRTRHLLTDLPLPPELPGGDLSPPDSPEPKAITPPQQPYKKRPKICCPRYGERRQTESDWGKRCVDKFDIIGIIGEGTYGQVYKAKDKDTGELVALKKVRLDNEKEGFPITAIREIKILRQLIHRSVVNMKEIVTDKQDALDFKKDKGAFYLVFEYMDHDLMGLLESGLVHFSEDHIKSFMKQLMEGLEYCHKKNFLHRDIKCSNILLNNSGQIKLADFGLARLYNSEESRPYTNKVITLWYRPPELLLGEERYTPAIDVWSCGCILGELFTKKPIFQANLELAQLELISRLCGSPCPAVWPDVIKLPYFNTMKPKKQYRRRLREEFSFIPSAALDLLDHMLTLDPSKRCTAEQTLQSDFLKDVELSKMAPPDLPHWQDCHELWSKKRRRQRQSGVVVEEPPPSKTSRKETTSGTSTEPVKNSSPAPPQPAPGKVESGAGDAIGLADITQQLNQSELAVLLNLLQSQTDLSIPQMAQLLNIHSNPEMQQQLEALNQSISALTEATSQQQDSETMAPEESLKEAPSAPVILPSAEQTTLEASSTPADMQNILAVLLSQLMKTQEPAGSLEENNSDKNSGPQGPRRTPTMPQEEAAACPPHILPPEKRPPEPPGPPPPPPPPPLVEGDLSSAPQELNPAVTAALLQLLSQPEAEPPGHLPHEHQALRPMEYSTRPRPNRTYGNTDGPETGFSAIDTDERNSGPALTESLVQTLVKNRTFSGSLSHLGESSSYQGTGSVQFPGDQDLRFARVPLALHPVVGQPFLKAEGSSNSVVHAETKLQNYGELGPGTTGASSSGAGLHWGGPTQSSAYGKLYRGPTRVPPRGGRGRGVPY
Cyclin-dependent kinase 13/Cyclin-K (Homo sapiens), sequence (O75909 whole entry, looked up): as the sequence (O75909 whole entry, looked up) above
Cyclin-dependent kinase 13/Cyclin-K (Homo sapiens), sequence (Q14004 whole entry, looked up): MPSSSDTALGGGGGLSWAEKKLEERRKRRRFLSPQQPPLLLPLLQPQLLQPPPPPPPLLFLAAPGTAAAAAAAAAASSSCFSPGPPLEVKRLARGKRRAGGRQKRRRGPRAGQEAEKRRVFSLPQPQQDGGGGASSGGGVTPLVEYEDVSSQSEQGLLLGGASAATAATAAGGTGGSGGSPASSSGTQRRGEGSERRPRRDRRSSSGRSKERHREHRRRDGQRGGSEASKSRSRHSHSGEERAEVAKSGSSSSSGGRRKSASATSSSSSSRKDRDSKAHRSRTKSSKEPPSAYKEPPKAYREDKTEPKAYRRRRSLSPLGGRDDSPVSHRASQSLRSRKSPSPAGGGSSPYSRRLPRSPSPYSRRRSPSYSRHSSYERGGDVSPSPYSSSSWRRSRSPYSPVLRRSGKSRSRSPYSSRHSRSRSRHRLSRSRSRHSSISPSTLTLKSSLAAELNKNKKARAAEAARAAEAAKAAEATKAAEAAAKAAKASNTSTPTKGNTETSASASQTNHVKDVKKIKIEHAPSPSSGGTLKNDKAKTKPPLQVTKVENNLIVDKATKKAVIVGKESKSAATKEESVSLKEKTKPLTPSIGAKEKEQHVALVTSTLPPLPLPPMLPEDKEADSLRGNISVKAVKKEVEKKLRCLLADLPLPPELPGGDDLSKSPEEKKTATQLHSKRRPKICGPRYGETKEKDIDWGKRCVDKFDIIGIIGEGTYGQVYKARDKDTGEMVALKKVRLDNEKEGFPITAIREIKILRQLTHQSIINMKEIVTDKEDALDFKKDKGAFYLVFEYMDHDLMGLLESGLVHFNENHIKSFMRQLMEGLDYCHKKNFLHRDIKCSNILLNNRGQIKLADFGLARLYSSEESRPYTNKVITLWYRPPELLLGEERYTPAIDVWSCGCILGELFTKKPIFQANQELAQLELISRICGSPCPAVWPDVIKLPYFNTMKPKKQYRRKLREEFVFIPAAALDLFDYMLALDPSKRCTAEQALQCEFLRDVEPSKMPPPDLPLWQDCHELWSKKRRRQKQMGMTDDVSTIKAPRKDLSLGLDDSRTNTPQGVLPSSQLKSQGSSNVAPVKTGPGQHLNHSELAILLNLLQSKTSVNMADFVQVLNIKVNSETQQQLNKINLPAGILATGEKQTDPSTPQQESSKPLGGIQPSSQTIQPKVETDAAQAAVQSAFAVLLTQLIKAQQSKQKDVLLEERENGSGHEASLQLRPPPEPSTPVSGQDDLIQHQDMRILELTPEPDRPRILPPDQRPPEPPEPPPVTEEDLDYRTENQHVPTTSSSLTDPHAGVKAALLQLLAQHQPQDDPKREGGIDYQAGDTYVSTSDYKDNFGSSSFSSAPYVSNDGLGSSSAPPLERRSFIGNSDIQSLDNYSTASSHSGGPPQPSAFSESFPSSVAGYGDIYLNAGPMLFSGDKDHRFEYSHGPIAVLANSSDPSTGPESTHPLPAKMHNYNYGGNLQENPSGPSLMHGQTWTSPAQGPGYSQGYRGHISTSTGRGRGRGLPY

With `O=C1CCC(Nc2cccc(N3CCN(CC4CCN(CC(=O)N5CCC(NC(=O)c6n[nH]cc6NC(=O)c6c(Cl)cccc6Cl)CC5)CC4)CC3)c2)C(=O)N1` (stereo unspecified) the Activity [1] was “Dose-dependent-effect”, the inhibition [2] was “Active” and the Activity [3] was “Not active; Very Short Self-Renewal Period For Cdk9 Observed”. The Activity [4] was “Active”, the Activity [5] was “Dose-dependent-effect” and the inhibition [6] was 46%. The inhibition [7] was 38%, the Activity [8] was “Active” and the Activity [9] was “Active”. For the same molecule, the Activity [10] was “inactive”, the inhibition [11] was 24% and the Activity [12] was “inactive”. For the same molecule, the inhibition [13] was “Active”, the Activity [14] was “Dose-dependent-effect” and the inhibition [15] was “Active”. The Activity [16] was “Active”, the Activity [17] was “Dose-dependent-effect” and the Activity [18] was “Dose-dependent-effect”. The Activity [19] was “Dose-dependent-effect”, the inhibition [20] was “Active” and the Activity [21] was “Active”. The inhibition [22] was 34%, the Activity [23] was “Active” and the inhibition [24] was 56%. For the same molecule, the Activity [25] was “Active” and the inhibition [26] was 35%.
